In US20150018380A1, “Methods of Screening for Activation Deaminase Inhibitors Through Nuclear Import Inhibitors” (University of Rochester, priority 2012, published 2015):
Entries after “also recorded” stand apart in the source; their conditions may differ. Like-named read-outs stand apart in the source and are kept apart here.

How the values were obtained:
[1] = target: T1, AID (Homo sapiens, UniProt Q9GZX7); experiment: AID-EGFP-HeLa HCS assay LOPAC screen for inhibitors of AID nuclear import; assay type: cell-based
T1 construct: expressed in transfected cells; host or cells: HeLa S3 (lentiviral transduction, pLVTHM, EF1-alpha promoter)
Procedure: The LOPAC screen was performed using 20 μM of each compound in duplicate with a 3-hour incubation followed by LMB treatment.
Maximum values, set to 100% corresponds to conditions of DMSO treated cells. Minimum values, set approximately to 0%, corresponds to conditions of only 200 ng/mL LMB treatment.

[2] = tested on: glucocorticoid receptor; conditions: prior screen, cited from earlier work
[3] = tested on: ACF; experiment: LMB response in HEK293T cells transiently cotransfected with ACF-EGFP and mCherry-hnRNPA1: ACF; assay type: cell-based, human; conditions: LMB treatment; transiently transfected HEK293T
Excerpt: (§1) Wild type human ACF, hnRNP A1, and TALDO1 cDNAs are obtained from BlueHeron (NM_014576.2, NM_002136.2 and NM_006755.1) cDNAs for ACF and A1 were subcloned into pGEM3 and pIRES, respectively. Criteria used for transient transfection, validating protein expression and determining appropriate N/C ratio baselines are described elsewhere herein. Two counter screens for shuttling proteins, run in parallel enable the identification of AID-selective nuclear import inhibitors.
(§2) Data presented herein show images from HEK293T cells 24 hr after being transiently cotransfected with ACF-EGFP and mCherry-hnRNPA1. FIG. 5G through FIG. 5I show images from a 384-well plate for EGFP-ACF, mCherry-hnRNPA1 and two color composite respectively. […] ACF and hnRNP A1 are selected because they shuttle using different mechanism than AID and because their function in the cell differs markedly from one another and from AID and H1. ACF binds to RNA through RNP domains that comprise three separate and centrally located RNA Recognition Motifs (RRM), required for ACF's function as an editing site recognition cofactor for APOBEC1 mRNA editing activity in the cell nucleus (Hintersteiner et al., 2010, ACS Chem Biol, 5(10): 967-79). […] ACF nuclear import is determined by a unique amino acid motif centrally located and a Cterminal, CRM1-dependent nuclear export signal (Chahine et al., 2009, Pharmacol Rev, 61(3): 358-72).

[4] = target: CRM1 (Homo sapiens, UniProt O14980); conditions: cited from earlier work
[5] = tested on: AID-EGFP; experiment: LMB / Ratjadone A response of AID-EGFP in stable HeLa AID-EGFP cells; assay type: cell-based, human; conditions: for AID-EGFP localization / nuclear retention: 100 ng/ml for 180 min
Excerpt: HCS assay development involves the selection of the most appropriate cellular model (Dudgeon et al., 2010, J. Biomol. Screen, 15: 766-782; Nickischer et al., 2006, Methods Enzymol, 414: 389-418; Williams et al., 2006, Methods Enzymol, 414: 364-89). In this regard, AID shuttling is not specific to B cells, making it possible to use a variety of cell types to study AID structure and function (Okazaki et al., 2002, Nature, 416: 340-5; Yoshikawa et al., 2002 Science, 296: 2033-6). However, the ability of LMB to induce quantitative AID nuclear retention was more uniform in HeLa cells (a finding has been independently confirmed by comparing the AID responses to LMB in transiently transfected HeLa, HEK293T, U2OS, A549, CaCo2, HepG2 and CHO cells). […] Consequently, AID-EGFP was subcloned from a pIRES vector into the lentiviral vector pLVTHM (Addgene) using the EF1-α promoter to drive moderate to low level expression. pLV-AID-EGFP psuedotyped virus was transduced into HeLa S3 cells (ATCC) that were live-cell flow sorted to obtain a homogenous population of fluorescent cells. Subcloning of a cell line was not thought to be necessary given the ability to threshold fluorescence in individual cells during high content screening. These cells have been maintained in culture with little or no loss of fluorescence for 2 months. HeLa AID-EGFP cells plated into 384-well plates at varying cell densities (1,250 to 10,000 cells per well) were simultaneously fixed with formaldehyde and counter stained with Hoechst and then imaged using both the IXU Ultra and ArrayScan VTI platforms with 10× and 20× objectives. Image quantification was performed with the multi-wavelength cell scoring (MWCS) & translocation enhanced (TE) image analysis modules and the molecular translocation (MT) image algorithm for the IXU Ultra and ArrayScan VTI, respectively. Based on image acquisition, 2,500 cells per well was determined ideal for either platform regardless of the objective. […] To establish the LMB response within the context of an HCS system and assess the assay parameters, cells were treated in 384-well format with varying doses (0.2 to 200 ng/ml) of either LMB or Ratjadone A (chemically related to LMB) for varying durations up to 200 min. […] There was a 4.5-fold difference between the nuclear to cytoplasmic (N/C) fluorescence ratio of LMB-treated cells and cells only treated with the solvent for LMB (0.5% methanol).
For the LOPAC high content screen (HCS), 2,500 AID-EGFP-HeLa cells were cultured per well on a 384-well plate. Cells were seeded and cultured overnight. Cells were exposed to 20 μM of test compound for 3 hours, followed by a 200 ng/mL LMB treatment for 3 hours. Experiments were run in duplicate. […]

[6] = tested on: mCherry-TALDO1; experiment: LMB response in HeLa cell line stably expressing AID-EGFP and mCherry-TALDO1: TALDO1; assay type: cell-based, human; conditions: LMB treatment; stable HeLa AID-EGFP/mCherry-TALDO1
Excerpt: (§3) A HeLa cell line stably expressing equivalent levels of AID-EGFP and mCherry-TALDO1 was established by transducing cells with a lentiviral vector encoding AID-EGFP. mCherry-TALDO1 was transfected/selected after the AID-EGFP line was sorted and selected. The cell line was then sorted for the co-expression of both proteins.
(§4) FIG. 23 depicts the expression of AID-EGFP and mCherry-TALDO1, as measured by flow cytometry (FIG. 23A) and western blot (FIG. 23B). […] FIG. 24 depicts the localization of AID-EGFP and mCherry-TALDO1 in control treated cells and LMB treated cells. […] This cell line is then used in a simultaneous primary/counter screen for compounds that selectively alter AID import, while not affecting TALDO1 localization.

[7] = tested on: AID-EGFP; experiment: LMB response in HEK293T cells transiently co-transfected with AID-EGFP and mCherry-H1: AID; assay type: cell-based, human
Procedure: (§5) HEK293T cells in 40 μl were plated robotically into 384-well plates using a Multi-Drop (ThermoScientific) such that in 24 hours the cell density is approximately 60% confluency. EGFP-AID and mCherry-H1 plasmids were mixed at a 1:1 molar ratio in Turbofect reagent as per the manufacture's protocol (Fermentas) and dispensed from a trough into the 384-well HEK293T cell cultures with a Perkin Elmer Janus robot liquid handling system. Each well received 25 ng of total plasmid DNA and uniform dispersal of the transfection mixture was ensured by placing the plates on the Perkin Elmer plate mixer at the highest speed setting for 30 sec. Due to the small culture volume, there was no effect on cell attachment to the plates but was critical for uniform transfection. Ranges of both EGFP-AID: mCherry-H1 plasmid ratios and amount of total plasmid DNA required for transfection of cells in 384-well format were evaluated. For current plasmid stocks, a 1:1 plasmid ratio gave the most consistent expression of both proteins.
(§6) Co-expression of other counter screen proteins and their response to LMB was evaluated using co-transfected HEK293T cells. […]

[8] = tested on: TALDO1; experiment: LMB response in 293T cells transiently co-transfected with AID-EGFP and mCherry-TALDO1: TALDO1; assay type: cell-based, human; conditions: LMB treatment; 293T co-transfected with AID-EGFP
Procedure: (§7) TALDO1 in pIRES was transiently co-transfected with AID-EGFP in 293T cells and fluorescence images taken 24 hours post-transfection. AID-EGFP was predominantly cytoplasmic while mCherry-TALDO1 was predominantly nuclear (FIG. 5P through FIG. 5R). […] It is concluded that co-expression of AID and TALDO1 is achievable and that the proteins have different N/C ratios even though they use the same importins.

[9] = tested on: AID-EGFP; experiment: LMB response in HeLa cell line stably expressing AID-EGFP and mCherry-TALDO1: AID; assay type: cell-based, human; conditions: LMB treatment; stable HeLa AID-EGFP/mCherry-TALDO1
Excerpt: as §3, §4

[10] = tested on: AID-EGFP; experiment: LMB response in 293T cells transiently co-transfected with AID-EGFP and mCherry-TALDO1: AID; assay type: cell-based, human; conditions: LMB treatment; 293T co-transfected with mCherry-TALDO1
Procedure: as §7

[11] = tested on: histone H1; experiment: LMB response in HEK293T cells transiently co-transfected with AID-EGFP and mCherry-H1: H1; assay type: cell-based, human; conditions: LMB treatment
Procedure: as §5, §6

[12] = tested on: hnRNP A1; experiment: LMB response in HEK293T cells transiently cotransfected with ACF-EGFP and mCherry-hnRNPA1: hnRNP A1; assay type: cell-based, human; conditions: LMB treatment; transiently transfected HEK293T
Excerpt: as §1, §2

[13] = 20 μM compound for 3 hours, then 200 ng/mL LMB for 3 hours, AID-EGFP-HeLa cells, 2,500 cells/well, duplicate

T1 sequence (Q9GZX7 whole entry): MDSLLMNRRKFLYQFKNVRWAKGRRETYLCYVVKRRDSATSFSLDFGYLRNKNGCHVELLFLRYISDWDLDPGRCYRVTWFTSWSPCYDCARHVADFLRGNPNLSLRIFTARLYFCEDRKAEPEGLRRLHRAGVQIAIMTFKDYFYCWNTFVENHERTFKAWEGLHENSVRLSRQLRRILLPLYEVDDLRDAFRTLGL
CRM1, sequence (O14980 whole entry): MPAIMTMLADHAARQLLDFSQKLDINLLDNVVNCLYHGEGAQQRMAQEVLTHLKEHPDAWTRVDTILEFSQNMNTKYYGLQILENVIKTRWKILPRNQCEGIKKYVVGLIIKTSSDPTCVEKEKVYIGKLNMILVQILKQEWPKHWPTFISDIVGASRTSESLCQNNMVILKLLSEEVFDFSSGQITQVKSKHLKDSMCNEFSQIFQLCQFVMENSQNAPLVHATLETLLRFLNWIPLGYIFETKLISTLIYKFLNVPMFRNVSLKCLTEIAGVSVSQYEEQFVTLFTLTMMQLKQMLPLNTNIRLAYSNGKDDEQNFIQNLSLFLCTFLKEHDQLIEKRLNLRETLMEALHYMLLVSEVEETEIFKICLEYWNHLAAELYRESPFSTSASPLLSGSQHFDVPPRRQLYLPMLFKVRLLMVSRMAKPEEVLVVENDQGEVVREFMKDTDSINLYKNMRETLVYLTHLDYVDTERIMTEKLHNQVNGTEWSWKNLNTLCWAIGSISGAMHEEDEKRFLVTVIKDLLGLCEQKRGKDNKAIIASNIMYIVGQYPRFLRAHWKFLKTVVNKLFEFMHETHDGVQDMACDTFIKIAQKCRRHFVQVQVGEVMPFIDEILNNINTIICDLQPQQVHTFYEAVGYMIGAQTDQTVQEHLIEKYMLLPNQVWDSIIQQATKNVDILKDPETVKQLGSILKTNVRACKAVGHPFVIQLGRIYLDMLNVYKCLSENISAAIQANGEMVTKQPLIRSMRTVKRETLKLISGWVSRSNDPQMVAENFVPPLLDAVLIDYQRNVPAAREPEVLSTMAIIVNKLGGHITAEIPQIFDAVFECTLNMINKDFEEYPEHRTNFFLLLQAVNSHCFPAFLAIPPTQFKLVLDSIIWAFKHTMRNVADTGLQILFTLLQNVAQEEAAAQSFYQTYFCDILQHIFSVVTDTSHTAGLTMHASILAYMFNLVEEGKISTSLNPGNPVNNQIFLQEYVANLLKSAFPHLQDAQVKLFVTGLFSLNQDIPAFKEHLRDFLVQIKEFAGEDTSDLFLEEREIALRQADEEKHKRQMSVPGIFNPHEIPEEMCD

`CN(C)S(=O)(=O)c1ccc2c(c1)/C(=C/c1cc3c([nH]1)CCCC3)C(=O)N2` [SU 6656] gave an inhibition at 20 µM [1, 13] of over 50%.
With `Cl.Cl.O=C1c2c(O)ccc(O)c2C(=O)c2c(NCCNCCO)ccc(NCCNCCO)c21` [M6545] the “fluorescence interference (false positive hit)” value ([1]; LOPAC screen, 20 μM) was “false positive autofluorescent”.
Molecule `O=C1c2c(O)ccc(O)c2C(=O)c2c(NCCNCCO)ccc(NCCNCCO)c21` [Mitoxantrone] has an inhibition at 20 µM [1, 13] of over 50%.
Molecule `Cc1c2ccncc2c(C)c2c1[nH]c1ccccc12` [Ellipticine] has an inhibition at 20 µM [1, 13] of over 50%.
For `CC(C)(C)c1ccc(S(=O)(=O)/C=C/C#N)cc1` [Bay 11-7085], the “inhibition of AID nuclear import” value [1, 13] is given as “greater than 50%”, the “nuclear import of the glucocorticoid receptor” value [2] is given as “inhibit the nuclear import of the glucocorticoid receptor” and the “nuclear import of the glucocorticoid receptor” value ([2]; listed as SID 53777289) is given as “inhibited nuclear import of the glucocorticoid receptor”.
For `CCC(=C/[C@H](C)C/C=C/C(C)=C/[C@@H](C)C(=O)[C@@H](C)[C@H](O)[C@@H](C)C/C(C)=C/C(=O)O)/C=C/[C@@H]1OC(=O)C=C[C@@H]1C` [LMB, Leptomycin B], the ACF localization [3] is listed as “nuclear retention of ACF; also recorded: redistribution of ACF-EGFP”, the “CRM1-mediated nuclear export of AID” value [4] is listed as “inhibited” and the “AID-EGFP localization / nuclear retention” value ([5]; HeLa AID-EGFP cells) is listed as “maximal nuclear retention of AID-EGFP; also recorded: nuclear AID-EGFP localization”. The “nuclear localization of AID-EGFP” value ([5]; 200 ng/mL LMB for 3 hours, control AID-EGFP-HeLa cells without test compound) was “approximately 80%”, the “difference in nuclear to cytoplasmic (N/C) fluorescence ratio versus solvent (0.5% methanol) treated cells” value ([5]; HeLa AID-EGFP cells, 384-well) was 4.5 fold and the mCherry-TALDO1 localization [6] was “remained nuclear”. The AID-EGFP nuclear retention ([7]; 50 ng/ml LMB for 90 min, transiently transfected HEK293T) was “increased retention in their nuclei; also recorded: selective redistribution of AID-EGFP”, the “effect of increasing LMB above 50 ng/ml on EGFP-AID retained in the nucleus” value ([7]; transient system, HEK293T) was “did not increase the amount of EGFP-AID retained in the nucleus” and the “nuclear mCherry fluorescence due to TALDO1” value [8] was “did not noticeably affect”. For the same molecule, the AID-EGFP localization [9] was “shift localization from primarily cytoplasmic to primarily nuclear”, the AID-EGFP nuclear retention [10] was “significant nuclear retention of AID-EGFP; also recorded: selective redistribution of AID-EGFP” and the “histone H1 localization” value [11] was “remained nuclear; also recorded: do not affect H1 nuclear localization”. The “hnRNP A1 localization” value [12] was “does not respond”.
For Ratjadone A, the “AID-EGFP localization / nuclear retention” value ([5]; HeLa AID-EGFP cells) was “maximal nuclear retention of AID-EGFP; also recorded: nuclear AID-EGFP localization”.
